Results reported in patent publication US8933224B2, “Triazine derivatives” (Pfizer Inc., priority 2013, dated 2015).
pIC50: −log10 of the molar value.

Molecular target: rat PDE10 enzyme (Rattus norvegicus (Rat), UniProt Q9QYJ6)
Assay: PDE10 scintillation proximity assay (SPA), inhibition of rat PDE10 enzyme activity
Format: biochemical
Conditions: geometric mean of 2-4 determinations unless otherwise indicated (b: ≧5 determinations; c: single determination)
Procedure: PDE10 activity was measured using a scintillation assay (SPA-based method) similar to that previously described by Seeger, T. F. et al., Brain Research 985 (2003) 113-126. The compounds' relative activity as PDE10 inhibitors was investigated by assaying a fixed amount of enzyme in the presence of the test compound and low substrate concentration (cAMP) such that an IC50 could be determined. […] The assay is performed in a 384-well format with 50 μL assay buffer (50 mM TRIS pH 7.5; 1.3 mM MgCl2; 0.01% Brij) containing enough PDE10 to convert ˜20% of 20 nM ^3H-cAMP, and a range of inhibitors. Reactions are incubated for 30 minutes at 25° C. The addition of 20 μL of 8 mg/ml yttrium silicate SPA beads (PerkinElmer) stops the reaction. The plates are sealed (TopSeal, PerkinElmer) and the beads are allowed to settle for 8 hrs, after which they are read on the Trilux Microbeta overnight. ^1Rat enzyme preparation:^2Human enzyme preparation:
The recombinant Bacmid was isolated and used to transfect sf9 insect cells to generate a viral stock. To generate cell paste for purification, sf21 cells were infected with the virus stock and cells were harvested 72 hours after infection as described in Seeger, T. F. et al., Brain Research 985 (2003) 113-126. Insect cell paste was lysed and after centrifugation, the supernatant was chromatographed on Ni-NTA agarose (Qiagen) followed by Mono Q (GE Healthcare Life Sciences) as described in Seeger, T. F. et al., Brain Research 985 (2003) 113-126.

rat PDE10 enzyme, sequence (Q9QYJ6 24-794): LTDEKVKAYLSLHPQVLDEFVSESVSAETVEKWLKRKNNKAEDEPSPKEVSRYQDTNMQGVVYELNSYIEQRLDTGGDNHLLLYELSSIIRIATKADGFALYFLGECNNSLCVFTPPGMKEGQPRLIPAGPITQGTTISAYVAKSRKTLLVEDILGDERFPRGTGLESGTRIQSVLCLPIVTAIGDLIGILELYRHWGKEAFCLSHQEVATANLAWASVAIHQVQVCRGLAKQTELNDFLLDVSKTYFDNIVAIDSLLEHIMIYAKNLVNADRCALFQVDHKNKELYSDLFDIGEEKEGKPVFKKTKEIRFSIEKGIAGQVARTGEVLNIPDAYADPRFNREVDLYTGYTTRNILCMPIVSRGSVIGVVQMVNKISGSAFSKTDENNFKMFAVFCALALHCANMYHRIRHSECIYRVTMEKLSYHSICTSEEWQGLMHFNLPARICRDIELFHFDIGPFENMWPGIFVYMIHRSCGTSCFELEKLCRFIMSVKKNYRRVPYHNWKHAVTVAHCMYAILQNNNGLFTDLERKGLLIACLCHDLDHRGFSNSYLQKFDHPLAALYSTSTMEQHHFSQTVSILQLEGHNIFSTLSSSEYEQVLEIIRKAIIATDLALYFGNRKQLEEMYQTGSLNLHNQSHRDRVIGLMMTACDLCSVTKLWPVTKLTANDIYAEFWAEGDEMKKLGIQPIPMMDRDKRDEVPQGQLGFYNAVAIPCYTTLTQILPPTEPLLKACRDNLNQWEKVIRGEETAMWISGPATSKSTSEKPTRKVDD

| pIC50 | SMILES |
| --- | --- |
| 9.25 | Cc1nc([C@@H]2CCOC2)c2c(N3CCc4nc(C5CC5)nc(C(F)(F)F)c4C3)ncnn12 [Example 89, 2-cyclopropyl-6-{7-methyl-5-[(3S)-tetrahydrofuran-3-yl]imidazo[5,1-f][1,2,4]triazin-4-yl}-4-(trifluoromethyl)-5,6,7,8-tetrahydropyrido[4,3-d]pyrimidine] |
| 9.12 | Cc1nn(C)c2c1CN(c1ncnn3c(C)nc([C@@H]4CCOC4)c13)CC2 [Example 93, 4-(1,3-dimethyl-1,4,6,7-tetrahydro-5H-pyrazolo[4,3-c]pyridin-5-yl)-7-methyl-5-[(3S)-tetrahydrofuran-3-yl]imidazo[5,1-f][1,2,4]triazine] |
| 8.54 | Cc1nc(CC(C)C)c2c(N3CCc4noc(C5CC5)c4C3)ncnn12 [Example 94, 4-(3-cyclopropyl-6,7-dihydro[1,2]oxazolo[4,3-c]pyridin-5(4H)-yl)-7-methyl-5-(2-methylpropyl)imidazo[5,1-f][1,2,4]triazine] |
| 8.04 | Cc1nc(CC(C)C)c2c(N3CCc4ncccc4C3)ncnn12 [Example 97, 6-[7-methyl-5-(2-methylpropyl)imidazo[5,1-f][1,2,4]triazin-4-yl]-5,6,7,8-tetrahydro-1,6-naphthyridine] |
| 7.94 | Cc1nc([C@H]2CCOC2)c2c(N3CCc4c(cnn4C4CC4)C3)ncnn12 [Example 98, 4-(1-cyclopropyl-1,4,6,7-tetrahydro-5H-pyrazolo[4,3-c]pyridin-5-yl)-7-methyl-5-[(3R)-tetrahydrofuran-3-yl]imidazo[5,1-f][1,2,4]triazine] |
| 8.19 | Cc1nc([C@H]2CCOC2)c2c(N3CCc4nn(C)cc4C3)ncnn12 [Example 99, 7-methyl-4-(2-methyl-2,4,6,7-tetrahydro-5H-pyrazolo[4,3-c]pyridin-5-yl)-5-[(3R)-tetrahydrofuran-3-yl]imidazo[5,1-f][1,2,4]triazine] |
| 7.64 | Cc1nc([C@H]2CCOC2)c2c(N3CCc4nn(C(C)C)cc4C3)ncnn12 [Example 100, 7-methyl-4-[2-(propan-2-yl)-2,4,6,7-tetrahydro-5H-pyrazolo[4,3-c]pyridin-5-yl]-5-[(3R)-tetrahydrofuran-3-yl]imidazo[5,1-f][1,2,4]triazine] |
| 9.55 | Cc1c2c(nn1C)CCN(c1ncnn3c(C)nc([C@@H]4CCOC4)c13)C2 [Example 101, 4-(2,3-dimethyl-2,4,6,7-tetrahydro-5H-pyrazolo[4,3-c]pyridin-5-yl)-7-methyl-5-[(3S)-tetrahydrofuran-3-yl]imidazo[5,1-f][1,2,4]triazine] |
| 8.40 | Cc1nc(C2CCOCC2)c2c(N3CCn4ncc(C(F)(F)F)c4C3)ncnn12 [Example 102, 7-methyl-5-(tetrahydro-2H-pyran-4-yl)-4-[3-(trifluoromethyl)-6,7-dihydropyrazolo[1,5-a]pyrazin-5(4H)-yl]imidazo[5,1-f][1,2,4]triazine] |
| 8.29 | Cc1nn(C)c2c1CN(c1ncnn3c(C)nc(C4CCOCC4)c13)CC2 [Example 103, 4-(1,3-dimethyl-1,4,6,7-tetrahydro-5H-pyrazolo[4,3-c]pyridin-5-yl)-7-methyl-5-(tetrahydro-2H-pyran-4-yl)imidazo[5,1-f][1,2,4]triazine] |
| 8.97 | Cc1nc(C2CCOCC2)c2c(N3CCc4nn(C)c(C(C)C)c4C3)ncnn12 [Example 104, 7-methyl-4[2-methyl-3-(propan-2-yl)-2,4,6,7-tetrahydro-5H-pyrazolo[4,3-c]pyridin-5-yl]-5-(tetrahydro-2H-pyran-4-yl)imidazo[5,1-f][1,2,4]triazine] |
| 8.73 | CCc1c2c(nn1C)CCN(c1ncnn3c(C)nc(C4CCOCC4)c13)C2 [Example 105, 4-(3-ethyl-2-methyl-2,4,6,7-tetrahydro-5H-pyrazolo[4,3-c]pyridin-5-yl)-7-methyl-5-(tetrahydro-2H-pyran-4-yl)imidazo[5,1-f][1,2,4]triazine] |
| 8.84 | CCc1nn(C)c2c1CN(c1ncnn3c(C)nc(C4CCOCC4)c13)CC2 [Example 106, 4-(3-ethyl-1-methyl-1,4,6,7-tetrahydro-5H-pyrazolo[4,3-c]pyridin-5-yl)-7-methyl-5-(tetrahydro-2H-pyran-4-yl)imidazo[5,1-f][1,2,4]triazine] |
| 9.02 | CCc1n[nH]c2c1CN(c1ncnn3c(C)nc(C4CCOCC4)c13)CC2 [Example 107, 4-(3-ethyl-1,4,6,7-tetrahydro-5H-pyrazolo[4,3-c]pyridin-5-yl)-7-methyl-5-(tetrahydro-2H-pyran-4-yl)imidazo[5,1-f][1,2,4]triazine] |
| 9.04 | Cc1nc(C2CCOCC2)c2c(N3CCc4[nH]nc(C(C)C)c4C3)ncnn12 [Example 108, 7-methyl-4-(3-(propan-2-yl)-1,4,6,7-tetrahydro-5H-pyrazolo[4,3-c]pyridin-5-yl]-5-(tetrahydro-2H-pyran-4-yl)imidazo[5,1-f][1,2,4]triazine] |
| 8.76 | Cc1nc(-c2ccccc2F)c2c(N3CCn4ncc(C(F)(F)F)c4C3)ncnn12 [Example 109, 5-(2-fluorophenyl)-7-methyl-4-[3-(trifluoromethyl)-6,7-dihydropyrazolo[1,5-a]pyrazin-5(4H)-yl]imidazo[5,1-f][1,2,4]triazine] |
| 7.70 | Cc1nc(-c2ccccc2F)c2c(N3CCc4ncncc4C3)ncnn12 [Example 110, 6-[5-(2-fluorophenyl)-7-methylimidazo[5,1-f][1,2,4]triazin-4-yl]-5,6,7,8-tetrahydropyrido[4,3-d]pyrimidine] |
| 9.83 | CCc1c2c(nn1C)CCN(c1ncnn3c(C)nc(-c4ccccc4F)c13)C2 [Example 112, 4(3-ethyl-2-methyl-2,4,6,7-tetrahydro-5H-pyrazolo[4,3-c]pyridin-5-yl)-5-(2-fluorophenyl)-7-methylimidazo[5,1-f][1,2,4]triazine] |
| 9.20 | Cc1c2c(nn1C)CCN(c1ncnn3c(C)nc(-c4ccccc4F)c13)C2 [Example 113] |
| 8.83 | Cc1nc2c(s1)CN(c1ncnn3c(C)nc(-c4ccccc4F)c13)CC2 [Example 114, 5-(2-fluorophenyl)-7-methyl-4-(2-methyl-6,7-dihydro[1,3]thiazolo[5,4-c]pyridin-5(4H)-yl)imidazo[5,1-f][1,2,4]triazine] |
| 9.08 | Cc1nn(C)c2c1CN(c1ncnn3c(C)nc(-c4ccccc4F)c13)CC2 [Example 115, 4-(1,3-dimethyl-1,4,6,7-tetrahydro-5H-pyrazolo[4,3-c]pyridin-5-yl)-5-(2-fluorophenyl)-7-methylimidazo[5,1-f][1,2,4]triazine] |
| 8.10 | Cc1nc(-c2ccccc2F)c2c(N3Cc4ccccc4CC3C)ncnn12 (stereo not drawn) [Example 116, 2-[5-(2-fluorophenyl)-7-methylimidazo[5,1-f][1,2,4]triazin-4-yl]-3-methyl-1,2,3,4-tetrahydroisoquinoline] |
| 9.47 | CCc1nn(C)c2c1CN(c1ncnn3c(C)nc(-c4ccccc4F)c13)CC2 [Example 117] |
| 9.28 | CCc1nn(C)c2c1CN(c1ncnn3c(C)nc(-c4ccc(F)cc4Cl)c13)CC2 [Example 119, 5-(2-chloro-4-fluorophenyl)-4-(3-ethyl-1-methyl-1,4,6,7-tetrahydro-5H-pyrazolo[4,3-c]pyridin-5-yl)-7-methylimidazo[5,1-f][1,2,4]triazine] |
| 9.63 | CCc1c2c(nn1C)CCN(c1ncnn3c(C)nc(-c4ccc(F)cc4Cl)c13)C2 [Example 120, 5-(2-chloro-4-fluorophenyl)-4-(3-ethyl-2-methyl-2,4,6,7-tetrahydro-5H-pyrazolo[4,3-c]pyridin-5-yl)-7-methylimidazo[5,1-f][1,2,4]triazine] |
| 8.87 | Cc1nn(C)c2c1CN(c1ncnn3c(C)nc(-c4ccc(F)cc4Cl)c13)CC2 [Example 121, 5-(2-chloro-4-fluorophenyl)-4-(1,3-dimethyl-1,4,6,7-tetrahydro-5H-pyrazolo[4,3-c]pyridin-5-yl)-7-methylimidazo[5,1-f][1,2,4]triazine] |
| 8.58 | Cc1nc(-c2ccc(F)cc2Cl)c2c(N3CCc4cnn(C)c4C3)ncnn12 [Example 122, 5-(2-chloro-4-fluorophenyl)-7-methyl-4-(1-methyl-1,4,5,7-tetrahydro-6H-pyrazolo[3,4-c]pyridin-6-yl)imidazo[5,1-f][1,2,4]triazine] |
| 8.84 | CCOc1nc(C)nc2c1CN(c1ncnn3c(C)nc(-c4ccccc4F)c13)CC2 [Example 123, 4-ethoxy-6-[5-(2-fluorophenyl)-7-methylimidazo[5,1-f][1,2,4]triazin-4-yl]-2-methyl-5,6,7,8-tetrahydropyrido[4,3-d]pyrimidine] |
| 8.57 | Cc1nc2c(c(=O)n1C)CN(c1ncnn3c(C)nc(-c4ccccc4F)c13)CC2 [Example 124, 6-[5-(2-fluorophenyl)-7-methylimidazo[5,1-f][1,2,4]triazin-4-yl]-2,3-dimethyl-5,6,7,8-tetrahydropyrido[4,3-d]pyrimidin-4(3H)-one] |
| 8.19 | Cc1nc2c(c(OC(F)F)n1)CN(c1ncnn3c(C)nc(-c4ccccc4F)c13)CC2 [Example 125, 4-(difluoromethoxy)-6-[5-(2-fluorophenyl)-7-methylimidazo[5,1-f][1,2,4]triazin-4-yl]-2-methyl-5,6,7,8-tetrahydropyrido[4,3-d]pyrimidine] |
